Measurements published in patent publication US20250197392A1, “CRYSTALLINE FORMS OF AN INHIBITOR OF THE MENIN/MLL INTERACTION” (JANSSEN PHARMACEUTICA NV, priority 2022, published 2025).

Key:
[1] = biological target: Menin/MLL (terbium chelate-labeled menin, FITC-MBM1 peptide) (Homo sapiens (Human), UniProt O00255); test: Menin/MLL homogenous time-resolved fluorescence (HTRF) assay; format: binding; settings: 30 min incubation of compound with labeled menin
Method: To an untreated, white 384-well microtiter plate was added 40 nL 200× test compound in DMSO and 4 μL 2× terbium chelate-labeled menin (vide infra for preparation) in assay buffer (40 mM Tris·HCl, pH 7.5, 50 mM NaCl, 1 mM DTT (dithiothreitol) and 0.05% Pluronic F-127). After incubation of test compound and terbium chelate-labeled menin for 30 min at ambient temperature, 4 μL 2×FITC-MBM1 peptide (FITC-β-alanine-[…]-NH2) (“FITC” means fluorescein isothiocyanate) in assay buffer was added, the microtiter plate centrifuged at 1000 rpm for 1 min and the assay mixtures incubated for 15 min at ambient temperature. The relative amount of menin-FITC-MBM1 complex present in an assay mixture is determined by measuring the homogenous time-resolved fluorescence (HTRF) of the terbium/FITC donor/acceptor fluorphore pair using an EnVision microplate reader (ex. 337 nm/terbium em. 490 nm/FITC em. 520 nm) at ambient temperature. The degree of fluorescence resonance energy transfer (the HTRF value) is expressed as the ratio of the fluorescence emission intensities of the FITC and terbium fluorophores (F^em 520 nm/F^em 490 nm). […]
Compound potencies were determined by first calculating % inhibition at each compound concentration according to equation 1: […]

MEIS1 mRNA expression = MEIS1 mRNA expression assay (Quantigene Singleplex) in MOLM14 cells; format: cell-based, human; settings: 48 hours incubation
Method: MEIS1 mRNA expression upon treatment of compound was examined by Quantigene Singleplex assay (Thermo Fisher Scientific). This technology allows for direct quantification of mRNA targets using probes hybridizing to defined target sequences of interest and the signal is detected using a Multimode plate reader Envision (PerkinElmer). The MOLM14 cell line was used for this experiment. Cells were plated in 96-well plates at 3,750 cells/well in the presence of increasing concentrations of compounds. After incubation of 48 hours with compounds, cells were lysed in lysis buffer and incubated for 45 minutes at 55° C. Cell lysates were mixed with human MEIS1 specific capture probe or human RPL28 (Ribosomal Protein L28) specific probe as a normalization control, as well as blocking probes. Cell lysates were then transferred to the custom assay hybridization plate (Thermo Fisher Scientific) and incubated for 18 to 22 hours at 55° C. Subsequently, plates were washed to remove unbound materials followed by sequential addition of preamplifiers, amplifiers, and label probe. Signals (=gene counts) were measured with a Multimode plate reader Envision. IC50s were calculated by dose-response modelling using appropriate software. […] Fold changes were calculated by dividing the normalized values for the treated samples by the normalized values for the DMSO treated sample. […]

MOLM14 cells = test: Proliferation assay (spheroid assay) MOLM14; format: cell-based, human; settings: 8 days, MLL-AF9 cell line; read-out: spheroid assay_MOLM14 IC50
Method: (§1) The anti-proliferative effect of menin/MLL protein/protein interaction inhibitor test compounds was assessed in human leukemia cell lines. The cell line MOLM14 harbors a MLL translocation and expresses the MLL fusion protein MLL-AF9, respectively, as well as the wildtype protein from the second allele. OCI-AML3 cells that carry the NPM1c gene mutation were also tested. […] KO-52 was used as a control cell line containing two MLL (KMT2A) wildtype alleles in order to exclude compounds that display general cytotoxic effects.
(§2) MOLM14 cells were cultured in RPMI-1640 (Sigma Aldrich) supplemented with 10% heat-inactivated fetal bovine serum (HyClone), 2 mM L-glutamine (Sigma Aldrich) and 50 μg/ml gentamycin (Gibco). […]
(§3) In order to assess the anti-proliferative effects, 200 MOLM14 cells, 200 OCI-AML3 cells or 300 KO-52 cells were seeded in 200 μl media per well in 96-well round bottom, ultra-low attachment plates (Costar, catalogue number 7007). […] Spheroid like growth was measured in real-time by live-cell imaging (IncuCyteZOOM, Essenbio, 4× objective) acquiring images at day 8. Confluence (%) as a measure of spheroid size was determined using an integrated analysis tool.
(§4) In order to determine the effect of the test compounds over time, the confluence in each well as a measure of spheroid size, was calculated. […]
(§5) Absolute IC50 values were calculated as percent change in confluence as follows: […]

OCI-AML3 cells = test: Proliferation assay (spheroid assay) OCI-AML3; format: cell-based, human; settings: 8 days, NPM1c mutated cell line; read-out: spheroid assay_OCI-AML3 IC50
Method: as §1, §2, §3, §4, §5

KO-52 cells = test: Proliferation assay (spheroid assay) KO-52 control cell line; format: cell-based, human; settings: 8 days, MLL wildtype control cell line; read-out: spheroid assay_KO-52 IC50
Method: as §1, §2, §3, §4, §5

[2] = Dynamic vapor sorption (DVS) moisture sorption analysis; format: physicochemical; settings: after 2 cycles of vapor adsorption/desorption
Method: The moisture sorption analysis (DVS) was performed using a ProUmid GmbH & Co. KG Vsorp Enhanced dynamic vapor sorption apparatus. The moisture profile was evaluated by monitoring vapor adsorption/desorption over the range of 0 to 90% relative humidity at 25° C. The sample weight equilibrium criteria were set at ≤0.010% change in 45 min with minimum and maximum time of acclimation at 50 min and 120 min, respectively. The moisture profile consisted of 2 cycles of vapor adsorption/desorption.

Menin/MLL (terbium chelate-labeled menin, FITC-MBM1 peptide), sequence (O00255 other isoform, or with tags, fused parts or gaps): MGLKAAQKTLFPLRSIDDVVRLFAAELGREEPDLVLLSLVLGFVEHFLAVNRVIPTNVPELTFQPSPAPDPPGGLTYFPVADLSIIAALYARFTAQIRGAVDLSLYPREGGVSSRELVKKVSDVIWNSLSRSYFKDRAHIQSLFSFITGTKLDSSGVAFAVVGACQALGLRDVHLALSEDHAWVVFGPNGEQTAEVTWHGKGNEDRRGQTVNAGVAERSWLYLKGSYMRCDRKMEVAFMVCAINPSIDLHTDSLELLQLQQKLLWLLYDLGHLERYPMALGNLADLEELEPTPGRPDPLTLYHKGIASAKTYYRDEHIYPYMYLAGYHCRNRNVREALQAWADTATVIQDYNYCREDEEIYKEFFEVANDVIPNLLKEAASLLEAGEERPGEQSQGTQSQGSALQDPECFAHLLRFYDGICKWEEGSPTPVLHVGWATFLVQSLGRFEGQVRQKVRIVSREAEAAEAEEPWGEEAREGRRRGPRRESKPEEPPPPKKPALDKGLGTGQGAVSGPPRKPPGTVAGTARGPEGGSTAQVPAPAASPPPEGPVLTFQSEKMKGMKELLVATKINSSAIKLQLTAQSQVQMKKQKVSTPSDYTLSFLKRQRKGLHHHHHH

CC(=O)N1CCC(CN2CC[C@@H](Cc3cn(-c4ccc(F)cc4C(=O)N(C)C(C)C)c4cncc(C)c34)C2)CC1 [Compound 51a]
IC50 [1]: 0.024 nM
IC50 (MEIS1 mRNA expression): 11 nM
IC50 (MOLM14 cells): 13 nM
IC50 (OCI-AML3 cells): 70 nM
IC50 (KO-52 cells): 1200 nM
solid-state form stability after DVS test (XRPD) [2]: No indication of a solid-state form change was observed
